In article PMC4222603, “Dual inhibition of HIV-1 replication by integrase-LEDGF allosteric inhibitors is predominant at the post-integration stage” (Retrovirology, 2013):

How the values were obtained:
IN-LEDGF/p75 interaction = IN-LEDGF/p75 interaction (Human immunodeficiency virus type 1 group M subtype B, UniProt P12497); assay: biochemical
Method: IN-LEDGF HTRF® assay was performed in 384-well low volume black polystyrene plates (Corning) using IN-LEDGF assay buffer (25 mM Tris–HCl pH 7.4, 150 mM NaCl, 2 mM MgCl2, 0.4 M KF, 0.1% Igepal CA-630, 0.1% bovine serum albumin, 1 mM DTT). […] The HTRF ratio was converted to % inhibition and analyzed by fitting a sigmoidal dose–response equation with Hill slope to determine the IC50 of the compound.

[1] = biological target: T1, IN strand transfer activity (Human immunodeficiency virus type 1 group M subtype B, UniProt P12497); assay: IN strand transfer ELISA assay; format: biochemical, HIV-1
T1 construct: loaded on a Superdex 200 16/600 PG column (for full length IN); made in house
Method: IN strand transfer ELISA assay has been adapted from. […] 16 μL of IN mixture (20 mM HEPES pH 7.5, 10 mM MgCl2, 1 mM DTT, 0.50 μM His6-IN) was added. […] The reaction was stopped by addition of 60 μL stop mixture (20 mM Tris–HCl pH 7.6, 0.4 M NaCl, 10 mM Na2EDTA, 0.1 mg/mL salmon sperm DNA) and the volume transferred to Reacti-Bind high-binding capacity streptavidin-coated white plates (Thermo Scientific Pierce). After 1 h incubation at room temperature under gentle shaking, integrase and unjoined DNA were removed by three washes with 200 μL wash solution 1 (30 mM NaOH, 0.2 M NaCl, 1 mM Na2EDTA). 100 μL of 2000-fold diluted HRP-conjugated anti-DIG Fab (Roche Applied Science) was added and the plate was incubated for 1 h at 37°C. Unbound antibody was removed with wash solution 2 (PBS pH 7.4, 0.05% Tween-20, 0.1% bovine serum albumin), 100 μL of SuperSignal Femto ELISA substrate (Thermo Scientific Pierce) was added and chemiluminescence was immediately read in a PHERAstar Plus with LUM-plus module. The signal, converted to % inhibition, was analyzed by fitting a sigmoidal dose–response curve to determine IC50 and the inhibition plateau.

in vitro = format: cell-based; conditions: human
Method: Growth inhibition was monitored in a proliferating human T-cell line (MT-4) with different concentrations of compounds. ATP levels were quantified using the CellTiter-Glo® luminescent reagent (Promega) to measure the ability of a compound to inhibit cell growth, an indication of the compound’s cytotoxicity. Cytotoxicity was evaluated at either day 2 or day 5.

[2] = test system: NL4-3 RT M41L, D67N, K103N, M184V, L210W, T215Y; assay: Antiviral assay on Multi-drug (NRTI + NNRTI) resistant virus; format: cell-based, HIV-1; conditions: ratio EC50 resistant virus / wt virus; NRTI + NNRTI mutations
[3] = test system: NL4-3 HIV-1 virus bearing the T174I mutation in IN; assay: microbe, parasite or virus in culture; format: cell-based; conditions: Human immunodeficiency virus 1, NL43, read-out: EC50 on NL4-3 IN T174I mutant
[4] = biological target: T2, IN 3′ processing activity (Human immunodeficiency virus type 1 group M subtype B, UniProt P12497); assay: IN 3′ processing radioactive assay; format: biochemical, HIV-1; conditions: 0.01 to 100 μM
T2 construct: were carried out at 37°C with the full-length HIV-1 IN
Description: Sequences of the different oligonucleotides (ODN) substrates are U5B: 5′-[…]-3′, U5A: 5′- […]-3′ and U5B-2: 5′-[…]-3′. ODNs were purchased from Eurogentec and further purified by electrophoresis in a denaturing 16% acrylamide/urea gel. For activity assays, ODNs (U5B and U5B-2) were radiolabelled with T4 polynucleotide kinase (New England Biolabs) and γ[^32-P]ATP (3000 Ci/mmol) (Amersham), and purified on a Sephadex G-10 column (GE Healthcare). Double-stranded ODNs (U5B with U5A and U5B-2 with U5A used for 3′-processing and strand transfer reactions, respectively) were obtained by mixing equimolar amounts of complementary strands in the presence of 100 mM NaCl.
IN activity assays – 3′-processing, strand transfer – were carried out at 37°C with the full-length HIV-1 IN, in a buffer containing 10 mM HEPES (pH 7.2), 1 mM DTT, 7.5 mM MgCl2 in the presence of 6.25 nM DNA (3′-processing) or 12.5 nM DNA (strand transfer) as described previously. For negative control, 100 mM Na2EDTA was added to the reaction before incubation. Products were separated by electrophoresis in denaturing 16% acrylamide/urea gels. Gels were analysed with a Molecular Dynamics STORM phosphoimager and quantified with ImageQuant™ 4.1 software.

IN NL4-3 wt = biological target: T3, IN NL4-3 wt (Human immunodeficiency virus type 1 group M subtype B, UniProt P12497); set-up: species or system HIV-1; conditions: pre-incubation with 100 μM compound
T3 construct: loaded on a Superdex 200 16/600 PG column (for full length IN); made in house
Method: SEC was performed with a Superdex 200 10/300 GL column (GE Healthcare) using a flow-rate of 0.4 mL/min in buffer containing 50 mM HEPES, pH 7.5, 1 M NaCl, 7 mM CHAPS, 5 mM MgCl2, 10 mM DTT, 10% glycerol at room temperature. […] Protein elution was monitored at 280 nm.

[5] = test system: HIV-1 LAV virions produced by HeLa-LAV cells; assay: Virions produced by compound-treated HeLa-LAV cells: p24 and infectivity; format: cell-based
[6] = test system: NL4-3 IN T174I mutant virus; format: cell-based, HIV-1
[7] = test system: panel of virus mutants in an NL4-3 background resistant to INSTIs and other classes of ARV drugs; conditions: EC50 on resistant virus / EC50 on wt

## Cc1nc2c(c(-c3ccc4c(c3)CCCO4)c1C(OC(C)(C)C)C(=O)O)CCCC2 (stereo not drawn) [Mut101, 2-(tert-butoxy)-2-[4-(3,4-dihydro-2H-1-benzopyran-6-yl)-2-methyl-5,6,7,8-tetrahydroquinolin-3-yl]acetic acid]
IN-LEDGF/p75 interaction; IC50 on IN-LEDGF interaction inhibition, LEDGF competition, increased value, highest LEDGF/p75 competing concentration (range 7.5 nM to 480 nM)
  IC50: 680 nM
IN-LEDGF/p75 interaction; IC50 on IN-LEDGF interaction inhibition, LEDGF competition, starting value, lowest LEDGF/p75 competing concentration (range 7.5 nM to 480 nM)
  IC50: 97 nM
IN-LEDGF/p75 interaction; IN-LEDGF IC50, Table 1, HTRF, full length proteins
  IC50: 200 nM
[1]; Table 1, ELISA, read-out: IN ST IC50
  IC50: 170 nM
[1]; inhibition plateau, concentrations up to 100 μM
  IN ST plateau (%): 66%
In vitro
  CC50: > 50000 nM
[2]
  EC50 fold change Multi-drug: 1
[3]
  EC50: > 50000 nM
[4]
  Maximum inhibition of IN 3′ processing: 25-30%
IN NL4-3 wt
  Effect on IN wt oligomerization state (SEC): higher IN oligomerization state
[5]
  Virucidal effect on free virus released in supernatant: unable to inactivate free virus
[5]; compared with Raltegravir, DMSO or Mut063 treatment
  Amount of p24 produced by treated HeLa-LAV cells: comparable
[5]; luciferase assay in TZM cells
  Infectivity of virions from treated HeLa-LAV cells: strong virus infectivity defects
[6]
  Infectivity of NL4-3 IN T174I virus produced in presence of compound: insensitive
[7]
  EC50 fold change (FC) ratio against all resistant viruses: ≤ 1
